Test results taken from patent US20080076772A1, “Anti-Inflammatory Agents” (Pharma Mar S.A. Sociedad Unipersonal, priority 2004, published 2008).

Assays:
[1] = system: thymocytes; experiment: Cell viability of freshly isolated thymocytes (PI staining, flow cytometry); assay type: cell-based; details: Homo sapiens, Thymocyte, 48 h
Method: Purified populations of human blood monocytes were prepared as previously described by differential density centrifugation on Ficoll and Percoll gradients (see Allavena, P., Piemonti, L., Longoni, D., Bernasconi, S., Stoppacciaro, A., Ruco, L., and Mantovani, A. IL-10 prevents the differentiation of monocytes to dendritic cells but promotes their maturation to macrophages. Eur J Immunol, 28: 359-369, 1998). […] Human thymocytes were isolated from resected thymus from pediatric patients undergoing surgery. Thymocytes were obtained by teasing and isolated on Percoll gradient.
Cell viability was analyzed by DNA content in Flow Cytometry
(§1) Cells exposed to treatments were fixed with ethanol 70%, washed in PBS and stained with propidium iodide (PI) solution containing 10 ug/ml PI in PBS and 25 μl RNAse 10,000 units, overnight in the dark. PI incorporation was evaluated on at least 20,000 cells/sample using a FACS Calibur instrument (Becton Dickinson, Sunnyvale, Calif., USA), with a bandpass filter at 620 nm. Apoptosis was detected by staining with AnnexinV and PI. FACS analysis was performed using a bandpass filter 530 and 620 nm for green (AnnexinV) and red (PI) fluorescence respectively, in combination with a […] dichroic mirror.
Purified preparations of blood monocytes, lymphocytes and thymocytes were cultured with different concentrations of ecteinascidin 743 for 48 h. […]

[2] = system: monocytes; experiment: Apoptosis of monocytes (Annexin V / PI staining); assay type: cell-based, human; details: monocytes exposed to drug
Method: as §1

[3] = system: macrophage differentiation; experiment: In vitro macrophage differentiation of monocytes with M-CSF (phenotype analysis); assay type: cell-based, human; details: 1 nM, 5 days with M-CSF 20 ng/ml
Method: Expression of cell membrane markers was performed by immunofluoresce and analyzed by Flow Cytometry. Cells were incubated with anti-CD14, anti-CD16, anti-CD68, anti-CD206 (mannose receptor) and then with FITC-goat anti-mouse Ig as described. At least 10,000 cells were analyzed.
In order to study the effect of ecteinascidin 743 on macrophage differentiation, non cytotoxic doses of the drug were used. Monocytes were cultured with M-CSF (20 ng/ml) and with sub-cytotoxic concentrations of ecteinascidin 743 for 5 days. Phenotype analysis was performed by indirect immunofluorescence and analyzed in Flow Cytometry by gating on large cells. Usually, an average of 65±15% (mean±SD of>10 experiments) of input monocytes differentiate into large cells expressing typical macrophage markers, including CD16, CD68 and CD206 (mannose receptor). After 5 days of culture monocyte viability, evaluated by propidium iodide staining in flow cytometry, was 92% and 70% of untreated cells at 0.5 and 1 nM ecteinascidin 743, respectively.

[4] = system: CCL2; experiment: CCL2 production by TAM (ELISA); assay type: cell-based, human; details: 16 h, n=4
Description: (§2) Tumour-associated macrophages (TAM) and tumour cells were isolated from the ascitic fluid of patients with diagnosed ovarian adenocarcinoma, admitted to the Clinic of Obstetrics and Gynecology of the University of Milan-Bicocca, S Gerardo Hospital. Cells contained in the ascitic fluid were centrifuged and isolated by differential density gradients of Ficoll and Percoll, and plastic adherence as previously described (see Allavena, P., Peccatori, F., Maggioni, D., Erroi, A., Sironi, M., Colombo, N., Lissoni, A., Galazka, A., Meiers, W., Mangioni, C., et al. Intraperitoneal recombinant gamma-interferon in patients with recurrent ascitic ovarian carcinoma: modulation of cytotoxicity and cytokine production in tumour-associated effectors and of major histocompatibility antigen expression on tumour cells. Cancer Res, 50: 7318-7323, 1990). Purity of TAM and tumour cell preparations was usually>65±10% as defined by morphology and phenotype analysis. Cells were treated with ecteinascidin 743 at the indicated concentrations and cultured for 1-5 days, as specified in figure legends. […]
(§3) Monocytes, macrophages and TAM were stimulated with 100 ng/ml LPS to induce maximal cytokine production. Determination of cytokines CCL2, TNF and IL-6 was measured by specific ELISA following the manufacturer's instructions. […]

[5] = system: IL-6; experiment: Constitutive IL-6 production by freshly isolated ovarian tumour cells (ELISA); assay type: cell-based, human; details: 16 h
Description: as §2, §3

[6] = system: TNF; experiment: TNF production by LPS-stimulated monocytes (ELISA); assay type: cell-based, human; details: LPS 100 ng/ml, 16 h incubation
Method: (§4) Monocytes, macrophages and TAM were stimulated with 100 ng/ml LPS to induce maximal cytokine production. Determination of cytokines CCL2, TNF and IL-6 was measured by specific ELISA following the manufacturer's instructions.
(§5) To verify whether the inhibitory effect of ecteinascidin 743 on cytokine production was at the transcriptional level, we analyzed mRNA of CCL2 and TNF from LPS-stimulated macrophages by real time-PCR of CCL2 and TNF transcripts in LPS-stimulated monocytes exposed to ecteinascidin 743.
CCL2 and TNF production by LPS-stimulated monocytes treated with the indicated doses of the anti-tumor agents was also tested. […] […] None of these compounds interfered with the production of TNF.

[7] = system: TNF; experiment: TNF production by LPS-stimulated TAM (ELISA); assay type: cell-based, human; details: LPS 100 ng/ml, 16 h incubation, up to 10 nM
Method: as §4, §5

In the case of COc1cc2c(cc1O)CCN[C@]21CS[C@@H]2c3c(OC(C)=O)c(C)c4c(c3[C@H](COC1=O)N1[C@@H]2[C@H]2c3c(cc(C)c(OC)c3O)C[C@@H]([C@@H]1O)N2C)OCO4 [ecteinascidin 743], the IC50 [1] is reported as over 40 nM, the “Annexin V staining of dying monocytes (apoptosis)” value [2] is reported as “stained positive for Annexin V” and the “de novo expression of CD68, CD16 and CD206” value [3] is reported as “reduced”. The “reduction of LPS-stimulated production of CCL2 by TAM” value ([4]; LPS 100 ng/ml) was 50%, the “reduction of constitutive production of CCL2 by TAM” value ([4]; no LPS) was 43% and the “constitutive production of IL-6 by freshly isolated tumour cells” value [5] was “reduced”. The “production of TNF by monocytes” value [6] was “never inhibited” and the “production of TNF by TAM” value [7] was “never inhibited”.
